Experimental data reported in US8951972B2, “FGFR1 extracellular domain combination therapies for lung cancer” (Five Prime Therapeutics, Inc., priority 2010, dated 2015).

What was measured:
Type in all cases: in vivo, SCID mice
[1] = test system: H520 Non-Small Cell Lung Cancer (NSCLC) Xenograft; test: H520 non-small cell lung cancer (NSCLC) xenograft model, tumor volume
Protocol: Dosing for all groups began one day post tumor implantation.
In combination groups, FGFR1-ECD.339-Fc and pemetrexed were administered on the same schedule as when given as single agents, and were administered concurrently on days 1, 4, 8, and 11.

[2] = test system: A549 Non-Small Cell Lung Cancer (NSCLC) Xenograft; test: A549 non-small cell lung cancer (NSCLC) xenograft model, tumor volume
Protocol: Six weeks old female SCID mice were purchased from Charles River Laboratories (Wilmington, Mass.) and were acclimated for 1 week before the start of the study. […] The cells were implanted subcutaneously over the right flank of the mice at 5×10^6 cells/100 μl/mouse. One day after tumor implantation, mice were randomized according to body weight at 10 mice per group.
The tumor volume and body weight of the mice were monitored twice a week throughout each study.
The tumor volume of each group of mice at the end of each study was analyzed by one-way ANOVA followed by Tukey's test.
Cisplatin was purchased from Sigma-Aldrich (St. Louis, Mo.; Cat. No. P4394), formulated in 0.9% saline, and administered i.p. at 3.5 mg/kg ([…]) once per week for six weeks. Saline was used as negative control and was administered i.p. at 100 μl per mouse twice a week for six weeks.
On day 42, when the average tumor volume in the vehicle group reached 1300 mm^3, the mice were euthanized by isoflurane inhalation and cervical dislocation.
FGFR1-ECD.339-Fc was formulated in 0.9% Saline for Injection USP at 3 mg/ml. […] FGFR1-ECD.339-Fc was administered intraperitoneally (i.p.) at 15 mg/kg twice per week for 5 weeks. Paclitaxel was administered i.p. at 18 mg/kg on days 8, 12, and 15.
When the average tumor volume in vehicle control group reached ˜500 mm^3, the mice were euthanized by isoflurane inhalation and cervical dislocation.
FGFR1-ECD.339-Fc was formulated in 0.9% Saline for Injection USP at 3 mg/ml. 5-FU was purchased from Sigma-Aldrich (St. Louis, Mo.; Cat. No. F6627) and was initially dissolved in dimethyl sulfoxide (DMSO, Sigma-Aldrich, St. Louis, Mo.; Cat. No. D8418-50) at the concentration of 50 mg/ml as a stock solution. The stock solution was further diluted in 0.9% Sodium Chloride Injection USP to 6.6 mg/ml (for 33 mg/kg dosing). FGFR1-ECD.339-Fc was administered intraperitoneally (i.p.) at 15 mg/kg twice per week for four weeks. 5-FU was administered i.p. at 33 mg/kg twice a week for three weeks.
Mice were euthanized on day 31 by isoflurane inhalation and cervical dislocation.
FGFR1-ECD.339-Fc was formulated in PBS at 3 mg/ml and administered intraperitoneally (i.p.) at 15 mg/kg (300 μg/100 μl/mouse) twice a week for four weeks. Docetaxel was administered i.p. at 3 mg/kg or 10 mg/kg twice per week for four weeks.
Mice in the albumin control group were euthanized on day 32 by isoflurane inhalation and cervical dislocation when the average tumor volume in the group reached 1000 mm^3.

[3] = test system: Colo205 Colon Cancer Xenograft; test: Colo205 colon cancer xenograft model, tumor volume
Protocol: Cells were resuspended in a solution of 50%/v PBS and 50%/v Matrigel at a concentration of 25 million cells/ml. Resuspended cells were kept on ice until implantation. […] On day 0, 2.5 million cells/100 μl were implanted over the right flank of the each mouse using a 27G1/2 needle. One day after tumor implantation, the mice were randomized according to the body weight.
Leucovorin (LV) was also purchased from Sigma-Aldrich (Cat. No. F8259) and was formulated in 0.9% Sodium Chloride Injection USP at 2 mg/ml (for 10 mg/kg dosing), to 4 mg/ml (for 20 mg/kg dosing), and to 6 mg/ml (for 30 mg/kg dosing).
In the first experiment, FGFR1-ECD.339-Fc was combined with three different concentrations of 5-FU/leucovorin. In the second experiment, FGFR1-ECD.339-Fc was combined with either bevacizumab or 5-FU/leucovorin, or both. The double line separates the groups from the two experiments.
When the average tumor volume in a group was near 600 mm^3, the mice in that group were euthanized by isoflurane inhalation and cervical dislocation.
The order of effectiveness of the various treatments was evaluated two ways: 1) the average tumor volume in each group on a single time point (day); and 2) time for the average tumor volume in each group to reach 500 mm^3 (see the dotted line in FIG. 11E).
Leucovorin was also purchased from Sigma-Aldrich (Cat. No. F8259) and was formulated in 0.9% Sodium Chloride Injection USP at 2 mg/ml (for 10 mg/kg dosing).
5-FU and leucovorin were each administered i.p. at 10 mg/kg daily for five days. Oxaliplatin was administered i.p. at 5 mg/kg, 10 mg/kg, or 15 mg/kg in one dose on day 1.
Mice were euthanized on day 28 by isoflurane inhalation and cervical dislocation.

[4] = day 49, FGFR1-ECD.339-Fc alone 15 mg/kg i.p. 2x/wk x 6 wks
[5] = day 42, FGFR1-ECD.339-Fc 20 mg/kg i.p. 2x/wk x 6 wks, cisplatin 3.5 mg/kg i.p. 1x/wk x 6 wks
[6] = day 24, FGFR1-ECD.339-Fc 15 mg/kg i.p. 3x/wk x 4 wks, bevacizumab 1 mg/kg i.p. 2x/wk x 4 wks, 5-Fu/LV 10 mg/kg each i.p. q.d. x 5 days

Substance: FGFR1-ECD.339-Fc: human FGFR1 extracellular domain ending at amino acid 339 fused to an Fc; SEQ ID NO: 6 (mature form)
- Tumor inhibition over the course of the study (mean tumor volume) ([1]; FIGS. 2A, 3A, 4A, FGFR1-ECD.339-Fc 15 mg/kg, pemetrexed alone at the low or medium dose (62.5 or 125 mg/kg), combination dosed concurrently): resulted in tumor inhibition
- Fractional tumor volume (FTV), each treatment alone ([1]; day 49, FGFR1-ECD.339-Fc 15 mg/kg, pemetrexed 62.5 mg/kg): 0.68
- Fractional tumor volume (FTV), each treatment alone ([1]; day 49, FGFR1-ECD.339-Fc 15 mg/kg, pemetrexed 125 mg/kg): 0.68
- Fractional tumor volume (FTV), each treatment alone ([1]; day 49, FGFR1-ECD.339-Fc 15 mg/kg, pemetrexed 250 mg/kg): 0.68
- Mean Tumor volume mm^3(±SD) [1, 4]: 630.4 (±461.5) mm^3
- Tumor growth inhibition (%) [1, 4]: 31%
- Fractional tumor volume (FTV), each treatment alone ([2]; day 31, FGFR1-ECD.339-Fc 15 mg/kg i.p. 2x/wk x 4 wks, 5-FU 33 mg/kg i.p. 2x/wk x 3 wks): 0.84
- Fractional tumor volume (FTV), each treatment alone ([2]; day 31, FGFR1-ECD.339-Fc 15 mg/kg i.p. 2x/wk x 5 wks, paclitaxel 18 mg/kg i.p. days 8, 12, 15): 0.84
- Fractional tumor volume (FTV), each treatment alone ([2]; day 32, FGFR1-ECD.339-Fc 15 mg/kg i.p. 2x/wk x 4 wks, docetaxel 3 mg/kg i.p. 2x/wk x 4 wks): 0.54
- Fractional tumor volume (FTV), each treatment alone ([2]; day 32, FGFR1-ECD.339-Fc 15 mg/kg i.p. 2x/wk x 4 wks, docetaxel 10 mg/kg i.p. 2x/wk x 4 wks): 0.54
- Fractional tumor volume (FTV), each treatment alone ([2]; day 38, FGFR1-ECD.339-Fc 15 mg/kg i.p. 2x/wk x 5 wks, paclitaxel 18 mg/kg i.p. days 8, 12, 15): 0.89
- Fractional tumor volume (FTV), each treatment alone ([2]; day 39, FGFR1-ECD.339-Fc 15 mg/kg i.p. 2x/wk (start day 1), vincristine 1 mg/kg i.p. days 8, 15, 22): 0.50
- Mean Tumor volume mm^3(±SD) [2, 5]: 807 (±431) mm^3
- Tumor growth inhibition (%) [2, 5]: 39%
- Fractional tumor volume (FTV) relative to control, each treatment alone ([2]; day 42, FGFR1-ECD.339-Fc 20 mg/kg, cisplatin 3.5 mg/kg): 0.60
- Fractional tumor volume (FTV), each treatment alone ([2]; day 46, FGFR1-ECD.339-Fc 15 mg/kg i.p. 2x/wk (start day 1), vincristine 1 mg/kg i.p. days 8, 15, 22): 0.40
- Fractional tumor volume (FTV), each treatment alone ([2]; day 70, FGFR1-ECD.339-Fc 20 mg/kg i.p. 2x/wk (start day 19), vincristine 1.5 mg/kg i.p. days 27, 34, 41): 0.71
- Fractional tumor volume (FTV), each treatment alone ([3]; Day 16, FGFR1-ECD.339-Fc 15 mg/kg i.p. 3x/wk x 4 wks, 5-FU/LV 10 mg/kg each i.p. q.d. x 5 days): 0.76
- Fractional tumor volume (FTV), each treatment alone ([3]; Day 16, FGFR1-ECD.339-Fc 15 mg/kg i.p. 3x/wk x 4 wks, 5-FU/LV 20 mg/kg each i.p. q.d. x 5 days): 0.76
- Fractional tumor volume (FTV), each treatment alone ([3]; Day 16, FGFR1-ECD.339-Fc 15 mg/kg i.p. 3x/wk x 4 wks, 5-FU/LV 30 mg/kg each i.p. q.d. x 5 days): 0.76
- Fractional tumor volume (FTV), each treatment alone ([3]; Day 24, FGFR1-ECD.339-Fc 15 mg/kg i.p. 3x/wk x 4 wks, bevacizumab 1 mg/kg i.p. 2x/wk x 4 wks, 5-Fu/LV 10 mg/kg each q.d. x 5 days): 0.73
- Order of antitumor effect of the treatment groups ([3]; by average tumor volume on a single day and by time for average tumor volume to reach 500 mm^3 (FIG. 11E), value gives the next-ranked group): >vehicle
- Fractional tumor volume (FTV), each treatment alone ([3]; day 17, FGFR1-ECD.339-Fc 15 mg/kg i.p. 2x/wk x 4 wks, 5-FU and leucovorin 10 mg/kg each i.p. daily x 5 days, oxaliplatin 5 mg/kg i.p. one dose day 1): 0.77
- Fractional tumor volume (FTV), each treatment alone ([3]; day 17, FGFR1-ECD.339-Fc 15 mg/kg i.p. 2x/wk x 4 wks, 5-FU and leucovorin 10 mg/kg each i.p. daily x 5 days, oxaliplatin 10 mg/kg i.p. one dose day 1): 0.77
- Mean Tumor volume mm^3(±SD) [3, 6]: 509 (±144) mm^3
- Tumor growth inhibition (%) [3, 6]: 26%
